Values quoted from earlier work in patent US20080261897A1, “Formulation Containing a Polyphenol-Containing Composition and Isomaltulose” (priority 2005, published 2008).

**Q.** Which “solubility of isomaltulose in water” value does the source give for O=C(CO)[C@@H](O)[C@H](O)[C@H](O)CO[C@H]1O[C@H](CO)[C@@H](O)[C@H](O)[C@H]1O [isomaltulose, 6-O-α-D-glucopyranosylfructose] here?
**A.** The value was 0.49 g of anhydrous isomaltulose per g of water.
